Drawing on patent publication US11666577B2 (National Institute of Biological Sciences, Beijing, priority 2018, dated 2023), this text covers EC50 for 18 molecules.

SMILES strings stand for the structures.

The test system of this assay is HT-29 cells. Briefly: Necroptosis assay (TNF-α/Smac mimetic/z-VAD, TSZ-induced) in HT-29 cells. To be noted: Series 1 (Table 1) compounds 147-176; activity extrapolated; read-out: Series 1 compound necroptosis activity (extrapolated). It is filed as cell-based, human. In outline: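 HT-29 cells were challenged with 20 ng/ml TNF-α, 100 nM Smac mimetic and 20 mM z-VAD while compound was added at the same time (library screen at 10 mM). After 24 h, viability was read as ATP luminescence (CellTiter-Glo) and normalized to DMSO-treated cells; values are means ± SD of duplicates.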

For `C=CC(=O)Nc1cccc(C#CCn2c(=O)n(C)c(=O)c3c2nc(S(=O)(=O)CCO)n3C)c1` [Compound 159], the EC50 was 1 to 1000 µM.

With `C=CC(=O)Nc1cccc(C#CCn2c(=O)n(C)c(=O)c3c2nc(S(=O)(=O)CC2CC2)n3C)c1` [Compound 160], the EC50 was 1 to 1000 µM.

Turning to `CCCC(=O)Nc1cccc(C#CCn2c(=O)n(C)c(=O)c3c2nc(S(=O)(=O)CC2CC2)n3C)c1` [Compound 161], the EC50 is 1 to 1000 µM.

As to `CCCNc1cccc(C#CCn2c(=O)n(C)c(=O)c3c2nc(S(C)(=O)=O)n3C)c1` [Compound 162], the EC50 was 1 to 1000 µM.

Take `Cn1c(=O)c2c(nc(S(C)(=O)=O)n2C)n(CC#Cc2ccc3cc[nH]c3c2)c1=O` [Compound 163]: the EC50 was 1 to 1000 µM.

In the case of `Cn1c(=O)c2c(nc(S(=O)(=O)CCc3ccccc3)n2C)n(CC#Cc2ccc3nc[nH]c3c2)c1=O` [Compound 164], the EC50 was 1 to 1000 µM.

With `Cn1c(=O)c2c(nc(S(C)(=O)=O)n2C)n(CC#Cc2ccc(=O)[nH]c2)c1=O` [Compound 165], the EC50 is 1 to 1000 µM.

`Cn1c(=O)c2c(nc(S(C)(=O)=O)n2C)n(CC#Cc2cccc(NCc3ccccc3)c2)c1=O` [Compound 166]: the EC50 is 1 to 1000 µM.

As to `Cn1c(=O)c2c(nc(S(C)(=O)=O)n2C)n(CC#CC2CCCNC2)c1=O` (stereo not drawn) [Compound 167], the EC50 was 1 to 1000 µM.

As for `Cn1c(=O)c2c(nc(S(C)(=O)=O)n2C)n(CC#Cc2cc(N)cc(Br)c2)c1=O` [Compound 168], the EC50 was 1 to 1000 µM.

With `Cn1c(=O)c2c(nc(S(C)(=O)=O)n2C)n(CC#Cc2cccc3[nH]ccc23)c1=O` [Compound 169], the EC50 is 1 to 1000 µM.

With `Cn1c(=O)c2c(nc(S(C)(=O)=O)n2C)n(CC#Cc2ccc3c(c2)NCCC3)c1=O` [Compound 170], the EC50 is 1 to 1000 µM.

`Cn1c(=O)c2c(nc(S(C)(=O)=O)n2C)n(CC#Cc2ccc3c(c2)NCC3)c1=O` [Compound 171]: the EC50 is 1 to 1000 µM.

For the molecule `Cn1c(=O)c2c(nc(S(=O)(=O)CC3CC3)n2C)n(Cc2cn(/C=C/CN)nn2)c1=O` [Compound 172], the EC50 is 1 to 1000 µM.

On to `CNC/C=C/c1ccc(Cn2c(=O)n(C)c(=O)c3c2nc(S(=O)(=O)CC2CC2)n3C)s1` [Compound 173], for which the EC50 was 1 to 1000 µM.

Consider `CNc1cc(C#CCn2c(=O)n(C)c(=O)c3c2nc(S(C)(=O)=O)n3C)ccc1N1CCOCC1` [Compound 174], for which the EC50 is 1 to 1000 µM.

`CNc1cc(C#CCn2c(=O)n(C)c(=O)c3c2nc(S(C)(=O)=O)n3C)ccc1N1CCN(C)CC1` [Compound 175]: the EC50 was 1 to 1000 µM.

Consider `CCCS(=O)(=O)c1nc2c(c(=O)n(C)c(=O)n2Cc2ccc(-c3cccc(NCC)c3)s2)n1C` [Compound 176], for which the EC50 was 1 to 1000 µM.
